{"source": "patent US11656221B2", "about": "“Methods to identify modulators of actin-binding proteins” (Regents of the University of Minnesota, priority 2019, dated 2023)", "key": {"[1]": {"biological_target": "T1, Lifeact-mCherry binding to F-actin (Oryctolagus cuniculus, UniProt P68135)", "T1 construct": "Actin was purified from acetone powder derived from the psoas muscle; made in house; host or cells: actin from rabbit psoas muscle; Lifeact-mCherry from E. coli, pE-SUMOpro", "assay": "F-actin and Lifeact-mCherry co-sedimentation assay", "parameters": "species or system New Zealand white rabbit (Oryctolagus cuniculus)", "conditions": "3 μM, 2 μM Lifeact-mCherry, 30 μM F-actin", "procedure": "(§1) Actin was purified from acetone powder derived from the psoas muscle of New Zealand white rabbit (Oryctolagus cuniculus). Filamentous (F)-actin was stored for up to 3 days on ice before use in binding assays. Within an hour of the binding assay, the F-actin was clarified at 100,000×g at 4° C. for 10 min prior to setting up binding assays. The L253P β-III-spectrin ABD was expressed in E. coli BL21(DE3) (Novagen). The ABD was purified and the His-SUMO tag proteolytically removed, as previously described, except size-exclusion chromatography was not performed due to the high purity of the ABD protein. Lifeact-mCherry protein was similarly prepared. A Bradford assay was performed to determine clarified F-actin and ABD protein concentrations.\n(§2) F-actin and ABD binding assays were performed as previously described. In brief, binding assays used 1 μM ABD protein, 1 μM F-actin and 1-50 μM compound (as indicated) or DMSO control for a total reaction volume of 60 μL in F-buffer containing 10 mM Tris, pH 7.5, 150 mM NaCl, 0.5 mM ATP, 2 mM MgCl2, and 1 mM DTT. Following 30 min incubation at room temperature (21° C.). F-actin was pelleted using centrifugation at 100,000×g at 25° C. for 30 min. Unbound ABD in the supernatant was measured following SDS-PAGE and Coomassie blue staining in accord. In addition, control co-sedimentations assays that lacked actin were performed to test if compounds cause ABD aggregation. F-actin and Lifeact-mCherry binding assays were undertaken with 2 μM Lifeact-mCherry, 30 μM F-actin and 1-50 μM compound (as indicated) or DMSO control for a total reaction volume of 80 μL in F-buffer. For a no-actin binding control, an assay sample with no F-actin was also set up. Binding reactions were allowed to reach equilibrium at room temperature (21° C.) for 30 min and then F-actin was pelleted by centrifugation at 100,000×g at 25° C. for 30 min. The amount of unbound Lifeact-mCherry was sampled by loading 7 μL of spin supernatant on a low volume black bottom 384-well plate (Greiner). Amount of mCherry was determined by acquiring fluorescence spectrum peak intensity at ˜600 nm using a spectral unmixing plate reader (Fluorescence Innovations, Inc) equipped with a 532 nm laser (Laserglow Technologies, Ontario, Canada) for excitation, 532 nm longpass filter for emission, and PMT for emission detection. The fraction of Lifeact-mCherry bound to F-actin was determined by subtracting from one the fraction of supernatant fluorescence intensity relative to the no-actin control sample, using the following equation:\n[formula] • Where Fcontrol/DMSO is the peak mCherry fluorescence of assay samples containing compound or DMSO control, and Fno-actin is the peak mCherry fluorescence of assay samples that contained no F-actin. 2.9 Trypan Blue Cell Viability Assays"}, "actin": {"biological_target": "actin", "conditions": "actin sedimentation assay; read-out: previously reported affinity value; cited from earlier work"}, "[2]": {"biological_target": "T2, ABD-L253P (L253P β-III-spectrin ABD) binding to F-actin (Homo sapiens, UniProt O15020, L253P)", "T2 construct": "His-SUMO (cleaved yes); made in house; host or cells: E. coli BL21(DE3), pE-SUMOpro; actin from rabbit psoas muscle", "T2 sequence (O15020 1-284 L253P)": "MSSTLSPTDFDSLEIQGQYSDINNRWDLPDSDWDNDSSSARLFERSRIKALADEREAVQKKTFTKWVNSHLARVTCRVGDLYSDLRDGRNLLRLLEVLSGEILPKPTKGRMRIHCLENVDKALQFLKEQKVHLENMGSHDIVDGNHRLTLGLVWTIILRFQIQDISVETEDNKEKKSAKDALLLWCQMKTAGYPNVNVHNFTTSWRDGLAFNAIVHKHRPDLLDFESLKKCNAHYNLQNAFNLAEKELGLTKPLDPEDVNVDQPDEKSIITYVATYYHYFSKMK", "assay": "F-actin and ABD co-sedimentation assay", "conditions": "3 μM, 1 μM ABD, 1 μM F-actin", "procedure": "as §1\nas §2, with “F-actin and Lifeact-mCherry binding assays were undertaken with 2 μM Lifeact-mCherry, 30 μM F-actin and 1-50 μM compound (as indicated) or DMSO control for a total reaction volume of 80 μL in F-buffer. For a no-actin binding control, an assay sample with no F-actin was also set up. Binding reactions were allowed to reach equilibrium at room temperature (21° C.) for 30 min and then F-actin was pelleted by centrifugation at 100,000×g at 25° C. for 30 min. The amount of unbound Lifeact-mCherry was sampled by loading 7 μL of spin supernatant on a low volume black bottom 384-well plate (Greiner).” left out, “equation: […]” for “equation:”"}, "[3]": {"biological_target": "T3, ternary complex consisting of GFP-ABD-L253P, Lifeact-mCherry, and actin (Homo sapiens, UniProt O15020, L253P)", "T3 construct": "L252P β-III-spectrin (human) ABD residues 1-284; expressed in transfected cells; host or cells: HEK293-6E, pTT5 vector, transient", "T3 sequence (O15020 1-284 L253P, one chain of several)": "as the sequence (O15020 1-284 L253P) above", "assay": "Primary live-cell time-resolved FRET assay (GFP-ABD-L253P plus Lifeact-mCherry)", "assay_type": "cell-based", "conditions": "12-point concentration response 0.01 to 30 μM, 1536-well plates, average of 3 plates; read-out: EC50 of FRET reduction"}}, "note": "Entries after “also recorded” stand apart in the source; their conditions may differ."}
{"smiles": "CO[C@H]1C[C@H](CC[C@H](C)[C@H](O)[C@H](C)[C@H]2OC(=O)/C=C/C(C)=C/C[C@H](O)C[C@@H]3C=CC[C@@H](C[C@H](OC)[C@@H](C)[C@@H](O)C[C@@H](O)[C@H](C)[C@@H]([C@@H](C)[C@@H](O)[C@@H](C)CC[C@H]4C[C@H](OC)C[C@H](C)O4)OC(=O)/C=C/C(C)=C/C[C@H](O)C[C@@H]4C=CC[C@@H](C[C@H](OC)[C@@H](C)[C@@H](O)C[C@@H](O)[C@@H]2C)O4)O3)O[C@@H](C)C1", "note": "[swinholide A]", "values": [{"measurement": "effect on Lifeact-mCherry binding with actin", "setting": "[1]", "value": "did reduce; also recorded: reduce Lifeact-mCherry binding with actin"}, {"measurement": "Kd", "setting": "actin", "value": 50, "unit": "nM"}, {"measurement": "effect on ABD-L253P binding to actin", "setting": "[2]", "value": "did reduce; also recorded: ablation"}, {"measurement": "effect on ABD-L253P binding to actin", "setting": "[2]; listed as swiholide A", "value": "reduce ABD-L253P binding to actin"}, {"measurement": "EC50", "setting": "[3]", "value": 264, "unit": "nM"}]}
